These results are taken from patent US9108978B2, “Antimicrobial compounds” (ADELAIDE RESEARCH & INNOVATION PTY LTD, priority 2011, dated 2015).

One test relates to Enterococcus faecium. Put plainly: Antimicrobial microbroth dilution assay, E. faecium. Type of test: cell-based. The procedure:
(§1) The biotin-triazoles were assessed for their antimicrobial activity using a microbroth dilution assay as recommended by the CLSI (Clinical and Laboratory Standards Institute, Document […]-A8, 2009, Wayne, Pa.) with cation-adjusted Mueller-Hinton broth (Trek Diagnostics Systems, U.K.). Compounds were dissolved using DMSO. Serial two-fold dilutions of each compound were made using DMSO as the diluent. Trays were inoculated with 5×10^4 CFU of each strain in a volume of 100 μL (final concentration of DMSO was 5% (v/v)), and incubated at 35° C. for 16-20 hours when the optical density of the growth cultures was measured by spectroscopy at wavelength 620 nm. A library of Gram negative and Gram positive microbes was employed.

The next test deals with Enterococcus faecalis. Put plainly: Antimicrobial microbroth dilution assay, E. faecalis. The class given is cell-based. The procedure:
as §1

For a further test, the system named is S. aureus ATCC 49775. Put plainly: Antimicrobial microbroth dilution assay, S. aureus. The following applies: at 8 μg/ml. The class given is cell-based, Staphylococcus aureus. The procedure:
as §1, with “employed. […] Inhibition of the growth of S. aureus ATCC 49775 was measured using a microbroth dilution assay with varying concentrations of BPL inhibitors. […] The antibiotic erythromycin was also included (X).” for “employed.”

Test [1] has as its target biotin protein ligase from S. aureus (SaBPL) (Staphylococcus aureus, UniProt A0A3A5LBF0). Briefly: BPL enzyme inhibition assay (3H-biotin incorporation), SaBPL. Type of test: biochemical. As to conditions: for IC50: 4 nM BPL, 20 minutes at 37° C.; for selectivity towards SaBPL over HsBPL (human BPL): Hs vs SaBPL. The procedure: (§2) Quantitation of BPL catalysed ^3H-biotin incorporation into the biotin domain substrate was performed as previously described by Polyak et al, J. Biol. Chem (1999) 274(46) 32847-54. Briefly, the reaction mixture contained: 50 mM Tris HCl pH 8.0, 3 mM ATP, 4.5 μM biotin, 0.5 μM ^3H-biotin, 5.5 mM MgCl2, 100 mM KCl, 0.1 mg/mL BSA and 10 μM biotin domain of S. aureus pyruvate carboxylase. The reaction was initiated by the addition of BPL to a final concentration of 4 nM. After 20 minutes at 37° C., 4 μL aliquots of the reaction were spotted onto Whatman paper pre-treated with biotin and trichloroacetic acid. The filters were washed twice with 10% v/v ice-cold trichloroacetic acid and once with ethanol before air-drying. Quantitation of protein-bound radiolabelled biotin was performed by liquid scintillation. One unit of enzyme activity was defined by the amount of BPL required to incorporate 1 nmol of biotin per minute. The IC50 value of each compound was determined from a dose-response curve by varying the concentration of the inhibitor under the same enzyme concentration. The data was analysed with GraphPad Prism using a non-linear fit of log10 (inhibitor) vs. normalized response. The Ki, the absolute inhibition constant for a compound, was determined using Eq 1:
The mode of inhibition was investigated by varying the concentrations of inhibitor alongside varying the concentrations of ^3H-biotin. The data was plotted as double reciprocal plots and assessed using Lineweaver-Burk analysis.
Triazoles 6.02-6.10 were assayed for inhibitory activity against the biotin protein ligases from S. aureus (SaBPL), Escherichia coli (EcBPL) and Homo sapiens (HsBPL) (Table 3). The inhibitory activity of the compounds was determined by measuring BPL activity with varying concentrations of inhibitors. From the dose-response curves IC50 values were determined and Ki values calculated.

The target of test [2] is biotin protein ligase from Escherichia coli (EcBPL) (Escherichia coli (strain K12), UniProt P06709). Briefly: BPL enzyme inhibition assay (3H-biotin incorporation), EcBPL. Type of test: biochemical. The procedure:
as §2
(§3) The inhibitory activity of the compounds was determined by measuring BPL activity with varying concentrations of inhibitors. From the dose-response curves IC50 values were determined and Ki values calculated.

Test [3] concerns the target biotin protein ligase from Homo sapiens (HsBPL) (Homo sapiens (Human), UniProt P50747). Briefly: BPL enzyme inhibition assay (3H-biotin incorporation), HsBPL. The class given is biochemical. The procedure:
as §2, §3

A further test deals with M. tuberculosis BPL (Mycobacterium tuberculosis (strain ATCC 25618 / H37Rv), UniProt I6YFP0). Briefly: BPL inhibition, M. tuberculosis BPL. The class given is biochemical, Mycobacteria tuberculosis.
Sequence of M. tuberculosis BPL (I6YFP0 whole entry, looked up): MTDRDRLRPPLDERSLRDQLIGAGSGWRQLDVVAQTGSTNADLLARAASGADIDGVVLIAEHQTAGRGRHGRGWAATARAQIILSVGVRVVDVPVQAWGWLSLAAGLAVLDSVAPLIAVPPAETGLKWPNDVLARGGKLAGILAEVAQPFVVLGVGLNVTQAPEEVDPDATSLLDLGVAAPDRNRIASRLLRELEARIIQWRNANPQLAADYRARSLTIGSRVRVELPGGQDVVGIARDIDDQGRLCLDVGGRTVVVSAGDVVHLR
Setting [4] is: read-out: Ki EcBPL (E. coli BPL).
Where [5] appears, read: calculated from IC50, [biotin]=5 μM, Km 1 μM, read-out: Ki SaBPL.

Like-named read-outs stand apart in the source and are kept apart here.

Sequence of biotin protein ligase from S. aureus (SaBPL) (A0A3A5LBF0 1-323): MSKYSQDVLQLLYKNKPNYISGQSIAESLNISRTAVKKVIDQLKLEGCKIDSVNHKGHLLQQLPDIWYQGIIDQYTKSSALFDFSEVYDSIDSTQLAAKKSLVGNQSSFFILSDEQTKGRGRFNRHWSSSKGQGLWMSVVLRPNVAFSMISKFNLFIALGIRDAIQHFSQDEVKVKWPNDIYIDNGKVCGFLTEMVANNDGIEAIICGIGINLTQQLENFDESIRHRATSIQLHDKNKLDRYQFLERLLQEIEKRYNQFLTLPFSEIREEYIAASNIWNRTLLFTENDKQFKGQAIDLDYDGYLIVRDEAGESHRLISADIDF
Sequence of biotin protein ligase from Escherichia coli (EcBPL) (P06709 whole entry, looked up): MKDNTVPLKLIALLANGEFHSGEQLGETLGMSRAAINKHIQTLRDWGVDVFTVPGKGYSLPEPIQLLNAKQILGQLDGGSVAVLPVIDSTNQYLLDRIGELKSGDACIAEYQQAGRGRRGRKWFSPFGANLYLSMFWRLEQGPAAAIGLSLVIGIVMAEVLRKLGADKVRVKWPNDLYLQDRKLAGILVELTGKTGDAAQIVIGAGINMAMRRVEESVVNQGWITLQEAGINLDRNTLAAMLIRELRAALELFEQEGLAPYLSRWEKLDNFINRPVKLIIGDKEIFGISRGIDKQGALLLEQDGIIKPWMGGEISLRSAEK
Sequence of biotin protein ligase from Homo sapiens (HsBPL) (P50747 whole entry): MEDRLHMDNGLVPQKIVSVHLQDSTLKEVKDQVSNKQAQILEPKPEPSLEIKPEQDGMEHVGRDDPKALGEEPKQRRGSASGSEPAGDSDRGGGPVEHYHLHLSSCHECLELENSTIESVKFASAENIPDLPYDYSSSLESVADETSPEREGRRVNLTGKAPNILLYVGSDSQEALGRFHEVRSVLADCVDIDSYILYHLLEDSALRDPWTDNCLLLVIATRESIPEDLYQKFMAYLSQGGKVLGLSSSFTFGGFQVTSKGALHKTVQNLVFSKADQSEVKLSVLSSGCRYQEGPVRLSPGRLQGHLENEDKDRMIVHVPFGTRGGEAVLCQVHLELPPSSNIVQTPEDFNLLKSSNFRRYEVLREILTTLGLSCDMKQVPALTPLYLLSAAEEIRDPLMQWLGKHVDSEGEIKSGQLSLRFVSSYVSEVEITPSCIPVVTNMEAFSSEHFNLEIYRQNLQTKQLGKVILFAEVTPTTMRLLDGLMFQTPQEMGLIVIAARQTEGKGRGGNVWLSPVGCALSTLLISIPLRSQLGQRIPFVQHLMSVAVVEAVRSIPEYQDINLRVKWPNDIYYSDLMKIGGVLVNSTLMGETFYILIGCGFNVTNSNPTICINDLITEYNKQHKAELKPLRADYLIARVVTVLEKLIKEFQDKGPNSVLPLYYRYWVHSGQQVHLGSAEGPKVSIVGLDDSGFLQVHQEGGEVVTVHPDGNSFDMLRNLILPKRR

With `Cc1ccc2oc(=O)n(CCCCn3cc(CCCCC[C@@H]4SC[C@@H]5NC(=O)N[C@@H]54)nn3)c2c1` [6.09], the “inhibition of growth of Enterococcus faecium” value in the test with Enterococcus faecium was “no inhibition of growth”. Also, in the test with Enterococcus faecalis, the “inhibition of growth of Enterococcus faecalis” value was “no inhibition of growth”. For the same compound, the “prevention of cell growth of S. aureus ATCC 49775” value with S. aureus ATCC 49775 worked out at 80%. In addition, in test [1], the “fold increase in potency against SaBPL compared to 4.01” value worked out at 7 fold, the “fold less potent against SaBPL compared to biotinol-5′-AMP 2.02” value (shortened to “fold less potent … to biotinol-5′-AMP 2.02”) turned out to be 3 fold, the “selectivity towards SaBPL over EcBPL (E. coli BPL)” value is listed as more than 1000 fold and the IC50 came out at 0.53 ± 0.01 µM. For the same compound, in test [1], the “selectivity towards SaBPL over HsBPL (human BPL)” value was more than 1000 fold. The Ki in test [1] (read-out: Ki SaBPL) was found to be 0.09 ± 0.02 µM. Moreover, in test [2] (setting [4]), the Ki is more than 30 µM. The Ki in test [3] is more than 30 µM.

Take `CC1(C)O[C@@H]2[C@H](O1)[C@@H](n1cnc3c(N)ncnc31)O[C@H]2Cn1cc(CCCCC[C@@H]2SC[C@@H]3NC(=O)N[C@@H]32)nn1` [3.25]: the “fold less potent … to biotinol-5′-AMP 2.02” value in test [1] worked out at 60 fold. The compound also gave an IC50 in test [1] of 11.6 ± 2.2 µM. Further, the “selectivity towards SaBPL over HsBPL (human BPL)” value in test [1] is listed as more than 16 fold. Moreover, the Ki was 1.83 ± 0.33 µM in test [1] (read-out: Ki SaBPL), more than 90 µM in test [2], more than 30 µM in test [2] (setting [4]) and more than 90 µM in test [3].

Consider biotin alkyne [3.12], for which, in test [1] (read-out: Ki SaBPL), the Ki was 0.33 ± 0.05 µM.

Turning to `Cc1ccc2oc(=O)n(CCCCc3noc(CCCCC[C@@H]4SC[C@@H]5NC(=O)N[C@@H]54)n3)c2c1` [compound 2, 3-[4-[5-[5-[(3aS,4S,6aR)-2-oxo-1,3,3a,4,6,6a-hexahydrothieno[3,4-d]imidazol-4-yl]pentyl]-1,2,4-oxadiazol-3-yl]butyl]-5-methyl-1,3-benzoxazol-2-one], the Ki on M. tuberculosis BPL was found to be 290 ± 16 µM; in test [1], 2.2 ± 0.8 µM.

Consider `Nc1ncnc2c1ncn2CCCCn1cc(CCCCC[C@@H]2SC[C@@H]3NC(=O)N[C@@H]32)nn1` [4.01], for which, in test [1], the “fold less potent … to biotinol-5′-AMP 2.02” value is 22 fold, the “inhibition against SaBPL” value is listed as “micromolar inhibition”, the “selectivity towards SaBPL over EcBPL (E. coli BPL)” value was “at least 400 fold” and the IC50 was found to be 4 ± 0.9 µM. Further, the “selectivity towards SaBPL over HsBPL (human BPL)” value in test [1] was “at least 400 fold”. For the same compound, the Ki in test [1] (setting [5]) was 0.66 ± 0.15 µM. In test [2], this compound showed an IC50 of more than 200 µM and a Ki of more than 90 µM. In addition, the Ki in test [2] (setting [4]) is more than 30 µM. Also, in test [3], the Ki is more than 90 µM. In addition, the IC50 in test [3] (in b132 the quantity is not named) was more than 200 µM.

In test [1], `Cc1ccc2oc(=O)n(CCCCOP(=O)(O)OCCCCC[C@@H]3SC[C@@H]4NC(=O)N[C@@H]43)c2c1` displayed an IC50 of more than 50 µM. Besides, in test [1] (setting [5]), the Ki was more than 10 µM.

With `CC1(C)O[C@@H]2[C@H](O1)[C@@H](n1cnc3c(N)ncnc31)O[C@H]2Cn1cc(CCCC[C@@H]2SC[C@@H]3NC(=O)N[C@@H]32)nn1` [4.09], in test [1], the affinity corresponds to a Ki of 7.53 ± 1.9 µM, the “fold less potent against SaBPL compared to triazole 3.25” value was 4 fold and the “inhibition against SaBPL” value is “micromolar inhibition”. This compound also showed a Ki in test [2] of more than 10 µM. Also, the Ki in test [3] is more than 10 µM.

On to `Nc1ncnc2c1ncn2CCCCCn1cc(CCCC[C@@H]2SC[C@@H]3NC(=O)N[C@@H]32)nn1` [4.13], for which, in test [1], the Ki turned out to be 2.86 ± 0.75 µM, the “fold less potent against SaBPL compared to 4.01” value is 4 fold and the “inhibition against SaBPL” value is reported as “micromolar inhibition”. Further, the inhibitory constant (Ki) in test [2] was more than 10 µM. Moreover, in test [3], the Ki was more than 10 µM.

`O=C1N[C@H]2[C@H](CS[C@H]2CCCCCc2cn(CCCCOc3ccc4ccccc4c3)nn2)N1` [6.07]: in test [1], the “fold less potent against SaBPL compared to 4.01” value was found to be 7 fold. The compound further displayed an IC50 in test [1] of 7 ± 1 µM. The Ki in test [1] (setting [5]) is 1.17 ± 0.17 µM; in test [2] (setting [4]) it was more than 30 µM; in test [3] it was more than 30 µM.
